Where “and” joins values, the source holds several entries; their conditions need not be identical. Equal values may be shown once.
Experiment: xn = mol fraction of the nth substance listed

O + CCCCCCCCCCCCCCCC[n+]1ccccc1.O=C([O-])C(O)c1ccccc1 + CC(C)C[C@H](N)C(=O)O
101 kPa, x2 = 0, x3 = 0
Settings | electrical conductivity [S/m]
293.15 K | 0.00012
298.15 K | 0.00015
303.15 K | 0.00016
308.15 K | 0.00017
313.15 K | 0.00019

O + CCCC[n+]1ccn(C)c1.[Br-]
101 kPa, x2 = 0
Settings | electrical conductivity [S/m]
288.15 K | 0.000101
298.15 K | 0.00015
308.15 K | 0.000216

CCCC[n+]1ccn(C)c1.F[B-](F)(F)F + CO
101 kPa
Settings | electrical conductivity [S/m] | viscosity [mPa·s]
298.1 K, x1 = 0.007405 | 0.598 | –
298.1 K, x1 = 0.03422 | 1.35 | –
303.15 K, x2 = 0.6004 | – | 5.98
313.15 K, x2 = 0 | – | 53
313.15 K, x2 = 0.1003 | – | 36.1
313.15 K, x2 = 0.2047 | – | 24.26
313.15 K, x2 = 0.7997 | – | 1.778
313.15 K, x2 = 0.9001 | – | 0.993
323.15 K, x2 = 0.1003 | – | 25.42
323.15 K, x2 = 0.6004 | – | 4.07
333.15 K, x2 = 0.3996 | – | 7.23

O + CCCCCCCCCCCCCC[n+]1ccccc1.O=C([O-])C(O)c1ccccc1 + NCC(=O)NCC(=O)O
101 kPa, x2 = 0, x3 = 0
Settings | electrical conductivity [S/m]
293.15 K | 0.00012
298.15 K | 0.00015
303.15 K | 0.00016
308.15 K | 0.00017
313.15 K | 0.00019

CCCC[n+]1ccn(C)c1.F[B-](F)(F)F + C=CC(=O)OC
101 kPa, x1 = 1
Settings | viscosity [mPa·s]
303.15 K | 76.3
313.15 K | 46.2

CC[n+]1ccn(C)c1.N#C[N-]C#N + OCC(F)(F)F + CCO
viscosity [mPa·s], 100 kPa
Settings | 298.15 K | 303.15 K | 308.15 K | 313.15 K | 318.15 K
x1 = 0.0355, x2 = 0.8508 | – | 0.27 | 0.22 | 0.16 | 0.15
x1 = 0.0692, x2 = 0.8058 | 0.93 | 0.78 | 0.7 | 0.61 | 0.57
x1 = 0.1059, x2 = 0.7569 | 1.52 | 1.32 | 1.19 | 1.07 | 1
x1 = 0.1341, x2 = 0.7174 | 1.96 | 1.71 | 1.55 | 1.41 | 1.31
x1 = 0.1703, x2 = 0.668 | 2.49 | 2.19 | 1.99 | 1.82 | –
x1 = 0.2026, x2 = 0.6226 | 2.94 | 2.59 | 2.36 | 2.16 | –
x1 = 0.2373, x2 = 0.574 | 3.4 | 3.01 | 2.74 | 2.51 | –
x1 = 0.2705, x2 = 0.5266 | 3.82 | 3.39 | 3.09 | 2.82 | –
x1 = 0.3059, x2 = 0.4761 | 4.24 | 3.77 | 3.43 | 3.14 | –
x1 = 0.3367, x2 = 0.4558 | 4.59 | 4.1 | 3.72 | 3.39 | –
x1 = 0.3741, x2 = 0.4288 | 5 | 4.47 | 4.05 | 3.69 | –
x1 = 0.4093, x2 = 0.4055 | 5.37 | 4.8 | 4.35 | 3.95 | –
x1 = 0.4361, x2 = 0.3894 | 5.63 | 5.04 | 4.56 | 4.14 | –
x1 = 0.4751, x2 = 0.3581 | 6.01 | 5.38 | 4.86 | 4.41 | –
x1 = 0.5091, x2 = 0.3393 | 6.33 | 5.67 | 5.11 | 4.62 | –
x1 = 0.539, x2 = 0.314 | 6.6 | 5.91 | 5.32 | 4.81 | –
x1 = 0.576, x2 = 0.2854 | 6.92 | 6.19 | 5.57 | 5.03 | –
x1 = 0.6046, x2 = 0.2689 | 7.16 | 6.41 | 5.75 | 5.19 | –
x1 = 0.6344, x2 = 0.2517 | 7.42 | 6.62 | 5.94 | 5.36 | –
x1 = 0.673, x2 = 0.2236 | 7.74 | 6.9 | 6.18 | 5.57 | –
x1 = 0.7094, x2 = 0.2009 | 8.04 | 7.15 | 6.4 | 5.77 | –
x1 = 0.7331, x2 = 0.1948 | 8.23 | 7.31 | 6.54 | 5.9 | –
x1 = 0.7722, x2 = 0.1661 | 8.55 | 7.57 | 6.77 | 6.11 | –
x1 = 0.8061, x2 = 0.1434 | 8.84 | 7.79 | 6.97 | 6.29 | –

CCCCCCCCn1cc[n+](C)c1.O=S(=O)([N-]S(=O)(=O)C(F)(F)F)C(F)(F)F + CCCCOC(C)=O
298.15 K, 100 kPa
Settings | electrical conductivity [S/m] | viscosity [mPa·s]
x2 = 0 | 0.131 | 90.3
x2 = 0.2414 | 0.194 | –
x2 = 0.7054 | – | 6.46
x2 = 0.8427 | 0.361 | –

CC[n+]1ccn(C)c1.N#C[N-]C#N + CCC(C)O
viscosity [mPa·s], 100 kPa
Settings | x1 = 0.1023 | x1 = 0.2005 | x1 = 0.3015 | x1 = 0.4018 | x1 = 0.5032 | x1 = 0.6026 | x1 = 0.7026 | x1 = 0.8032 | x1 = 0.9029 | x1 = 1
298.15 K | 3.05 | 3.17 | 3.48 | 3.86 | 4.53 | 5.4 | 6.7 | 8.3 | 10.3 | 13.1
303.15 K | 2.59 | 2.71 | 3.02 | 3.41 | 4.07 | 4.95 | 6.1 | 7.5 | 9.6 | 11.8
308.15 K | 2.25 | 2.37 | 2.68 | 3.06 | 3.72 | 4.63 | 5.6 | 7 | 8.9 | 10.9
313.15 K | 2.01 | 2.13 | 2.41 | 2.69 | 3.36 | 4.19 | 5.1 | 6.4 | 7.8 | 9
318.15 K | 1.83 | 1.95 | 2.26 | 2.54 | 3.06 | 3.79 | 4.59 | 5.8 | 6.9 | 8.1
323.15 K | 1.67 | 1.79 | 2.05 | 2.26 | 2.83 | 3.51 | 4.18 | 5 | 6.2 | 7.3

CC1COC(=O)O1 (centres undefined) + CCCC[n+]1ccn(C)c1.O=S(=O)([N-]S(=O)(=O)C(F)(F)F)C(F)(F)F
101.3 kPa
Settings | viscosity [mPa·s]
293.15 K, x2 = 0.8776 | 51
298.15 K, x2 = 0.1013 | 4.029
298.15 K, x2 = 0.7 | 28.89
303.15 K, x2 = 0.8079 | 29.79
303.15 K, x2 = 0.8776 | 33.75
308.15 K, x2 = 0.1013 | 3.249
308.15 K, x2 = 0.1557 | 4.102
308.15 K, x2 = 0.4128 | 9.65
308.15 K, x2 = 0.5045 | 12.33
313.15 K, x2 = 0.5045 | 10.67
318.15 K, x2 = 0.7 | 15.35
323.15 K, x2 = 0.7 | 13.28
333.15 K, x2 = 0.8776 | 13.61
338.15 K, x2 = 0.3071 | 3.659
348.15 K, x2 = 0 | 1.14
348.15 K, x2 = 0.1557 | 2.025

CCCC[n+]1ccn(C)c1.F[B-](F)(F)F + CN1CCCC1=O
viscosity, 101 kPa
Settings | 298.15 K | 303.15 K | 308.15 K | 313.15 K | 323.15 K
x1 = 0.0115 | 2.02 mPa·s | 1.88 mPa·s | 1.52 mPa·s | 1.44 mPa·s | –
x2 = 0 | 101 mPa·s | 81 mPa·s and 84.2 mPa·s | 61.5 mPa·s | 51.5 mPa·s | 35.5 mPa·s
x2 = 0.043 | 86 mPa·s | 73.7 mPa·s | 58.1 mPa·s | – | –
x2 = 0.0879 | 76.3 mPa·s | 63.5 mPa·s | 51.2 mPa·s | 43.1 mPa·s | –
x2 = 0.0999 | – | 63.2 mPa·s | – | – | –
x2 = 0.2001 | – | 47.1 mPa·s | – | – | –
x2 = 0.2126 | 56.9 mPa·s | 46.1 mPa·s | 36.1 mPa·s | 32.5 mPa·s | –
x2 = 0.3028 | – | 34.7 mPa·s | – | – | –
x2 = 0.388 | 35.2 mPa·s | 25.2 mPa·s | 16.5 mPa·s | 14.6 mPa·s | –
x2 = 0.4 | – | 24.58 mPa·s | – | – | –
x2 = 0.5343 | 21.7 mPa·s | 14.8 mPa·s | 9.2 mPa·s | 6.53 mPa·s | –
x2 = 0.6577 | 13.1 mPa·s | 9.5 mPa·s | 6.81 mPa·s | 5.38 mPa·s | –
x2 = 0.7001 | – | – | – | – | 4.6 mPa·s
x2 = 0.7221 | 9.1 mPa·s | 7.8 mPa·s | 5.61 mPa·s | 5.01 mPa·s | –
x2 = 0.7612 | 7.67 mPa·s | 6.86 mPa·s | 6.01 mPa·s | 5.33 mPa·s | –
x2 = 0.8524 | 4.94 mPa·s | 4.45 mPa·s | 3.99 mPa·s | 3.58 mPa·s | –
x2 = 0.9005 | 3.6 mPa·s | 3.27 mPa·s | 2.95 mPa·s | 2.69 mPa·s | –
x2 = 0.9321 | 2.96 mPa·s | 2.88 mPa·s | 2.81 mPa·s | 2.09 mPa·s | –
x2 = 0.9743 | 2.3 mPa·s | 2.11 mPa·s | 1.93 mPa·s | 1.79 mPa·s | –

CN(CCO)CCO + CCCCCC[n+]1ccn(C)c1.O=S(=O)([N-]S(=O)(=O)C(F)(F)F)C(F)(F)F
101 kPa, x1 = 1
Settings | viscosity [mPa·s]
303.15 K | 59.8
313.15 K | 37.9
318.15 K | 29.8

CC[n+]1ccn(C)c1.N#C[N-]C#N + CCCCO
100 kPa
Settings | viscosity [mPa·s]
298.15 K, x1 = 0.3006 | 3.16
303.15 K, x1 = 0.9012 | 8.7
308.15 K, x1 = 0.3006 | 2.29
308.15 K, x1 = 0.4008 | 2.52
308.15 K, x1 = 0.7012 | 4.34
308.15 K, x1 = 0.8016 | 5.5
313.15 K, x1 = 0.2007 | 1.97
313.15 K, x1 = 0.3006 | 2.03
318.15 K, x1 = 0.6014 | 2.39
323.15 K, x1 = 0.2007 | 1.56
323.15 K, x1 = 0.4008 | 1.71

O + CCCCCCCCCCCCCCCC[n+]1ccccc1.[Cl-]
Settings | electrical conductivity [S/m]
308.15 K, 101 kPa, x2 = 0 | 6.7e-05

CC(=O)[O-].C[NH+]1CCCC1 + CC(=O)[O-].Cn1cc[nH+]c1
298.15 K, 100 kPa
Settings | viscosity [mPa·s]
x2 = 0 | 3.78
x2 = 0.1 | 4.87
x2 = 0.19 | 5.35
x2 = 0.31 | 6.23
x2 = 0.4 | 6.46
x2 = 0.5 | 6.78
x2 = 0.59 | 6.74
x2 = 0.71 | 6.59
x2 = 0.8 | 6.47

CC1COC(=O)O1 (centres undefined) + CC[n+]1ccn(C)c1.N#C[S-]
101.3 kPa, x2 = 0
Settings | viscosity [mPa·s]
293.15 K | 2.945
308.15 K | 1.919
333.15 K | 1.293

O + CCCCCCCCCCCCCC[n+]1ccccc1.O=C([O-])C(O)c1ccccc1
101 kPa, x2 = 0
Settings | electrical conductivity [S/m]
293.15 K | 0.00012
298.15 K | 0.00015
303.15 K | 0.00016
308.15 K | 0.00017
313.15 K | 0.00019

— the CheMixHub ionic liquid set
